Assay: Stability of ethyl pyruvate in three formulations as measured by pH change over time
Type: physicochemical
Experimental: Formulations comprising ethyl pyruvate at various concentrations ([…]) were prepared by dissolving ethyl pyruvate in either commercially available Ringer's Lactate solution (potassium chloride (0 to about 4 mM), sodium chloride (about 100 to about 156 mM), calcium chloride (about 2.5 mM to about 3.0 mM), and sodium lactate (about 25 mM to about 30 mM)) or Ringer-like solution (potassium chloride (0 to about 4 mM), sodium chloride (about 100 to about 156 mM) and calcium chloride (about 2.5 mM to about 3.0 mM)), or Intralipid™ (1 000 mL contain: purified soybean oil 100-300 g, purified egg phospholipids 12 g, glycerol anhydrous 22 g, water for injection q.s. ad 1 000 mL. pH was adjusted with sodium hydroxide to pH approximately 8. Osmolality was about 300 mOsm/kg water). Acidity of each solution was measured at 0, 5, 30 and 60 minutes, 2, 4, 24, and 48 hours after dissolution of ethyl pyruvate.

SMILES: CCOC(=O)C(C)=O [Ethyl Pyruvate, ethyl pyruvate]
- pH (Intralipid, EP 1 %, 0 min after dissolution): 6.8
- pH (Intralipid, EP 1 %, 5 min after dissolution): 6.8
- pH (Intralipid, EP 1 %, 30 min after dissolution): 6.8
- pH (Intralipid, EP 1 %, 60 min after dissolution): 6.5
- pH (Intralipid, EP 1 %, 2 h after dissolution): 6.5
- pH (Intralipid, EP 1 %, 4 h after dissolution): 6.5
- pH (Intralipid, EP 1 %, 24 h after dissolution): 6.5
- pH (Intralipid, EP 1 %, 48 h after dissolution): 6.5
- pH (Intralipid, EP 5 %, 0 min after dissolution): 6.8
- pH (Intralipid, EP 5 %, 5 min after dissolution): 6.8
- pH (Intralipid, EP 5 %, 30 min after dissolution): 6.5
- pH (Intralipid, EP 5 %, 60 min after dissolution): 6.0
- pH (Intralipid, EP 5 %, 2 h after dissolution): 6.0
- pH (Intralipid, EP 5 %, 4 h after dissolution): 6.0
- pH (Intralipid, EP 5 %, 24 h after dissolution): 5.5
- pH (Intralipid, EP 5 %, 48 h after dissolution): 5.0
- pH (Intralipid, EP 10 %, 0 min after dissolution): 6.8
- pH (Intralipid, EP 10 %, 5 min after dissolution): 6.5
- pH (Intralipid, EP 10 %, 30 min after dissolution): 6.0
- pH (Intralipid, EP 10 %, 60 min after dissolution): 6.0
- pH (Intralipid, EP 10 %, 2 h after dissolution): 6.0
- pH (Intralipid, EP 10 %, 4 h after dissolution): 5.5
- pH (Intralipid, EP 10 %, 24 h after dissolution): 4.0
- pH (Intralipid, EP 10 %, 48 h after dissolution): 4.0
- drop in pH (Lactated Ringers Balanced Salt Solution, 1%, 5% and 10% by weight, over a 48 hour period): relatively reduced drop in pH
- pH (Ringer' lactate, EP 1 %, 0 min after dissolution): 6.0
- pH (Ringer' lactate, EP 1 %, 5 min after dissolution): 6.0
- pH (Ringer' lactate, EP 1 %, 30 min after dissolution): 5.5
- pH (Ringer' lactate, EP 1 %, 60 min after dissolution): 5.5
- pH (Ringer' lactate, EP 1 %, 2 h after dissolution): 5.2
- pH (Ringer' lactate, EP 1 %, 4 h after dissolution): 5.2
- pH (Ringer' lactate, EP 1 %, 24 h after dissolution): 5.2
- pH (Ringer' lactate, EP 1 %, 48 h after dissolution): 5.2
- pH (Ringer' lactate, EP 5 %, 0 min after dissolution): 6.0
- pH (Ringer' lactate, EP 5 %, 5 min after dissolution): 5.5
- pH (Ringer' lactate, EP 5 %, 30 min after dissolution): 5.3
- pH (Ringer' lactate, EP 5 %, 60 min after dissolution): 5.2
- pH (Ringer' lactate, EP 5 %, 2 h after dissolution): 5.2
- pH (Ringer' lactate, EP 5 %, 4 h after dissolution): 5.2
- pH (Ringer' lactate, EP 5 %, 24 h after dissolution): 5.2
- pH (Ringer' lactate, EP 5 %, 48 h after dissolution): 5.2
- pH (Ringer' lactate, EP 10 %, 0 min after dissolution): 6.0
- pH (Ringer' lactate, EP 10 %, 5 min after dissolution): 5.3
- pH (Ringer' lactate, EP 10 %, 30 min after dissolution): 5.3
- pH (Ringer' lactate, EP 10 %, 60 min after dissolution): 5.2
- pH (Ringer' lactate, EP 10 %, 2 h after dissolution): 5.2
- pH (Ringer' lactate, EP 10 %, 4 h after dissolution): 5.2
- pH (Ringer' lactate, EP 10 %, 24 h after dissolution): 5.2
- pH (Ringer' lactate, EP 10 %, 48 h after dissolution): 5.0
- pH (Ringer' solution (no lactate), EP 1 %, 0 min after dissolution): 6.5
- pH (Ringer' solution (no lactate), EP 1 %, 5 min after dissolution): 6.5
- pH (Ringer' solution (no lactate), EP 1 %, 30 min after dissolution): 6.5
- pH (Ringer' solution (no lactate), EP 1 %, 60 min after dissolution): 5.5
- pH (Ringer' solution (no lactate), EP 1 %, 2 h after dissolution): 5.5
- pH (Ringer' solution (no lactate), EP 1 %, 4 h after dissolution): 5.5
- pH (Ringer' solution (no lactate), EP 1 %, 24 h after dissolution): 5.5
- pH (Ringer' solution (no lactate), EP 1 %, 48 h after dissolution): 5.5
- pH (Ringer' solution (no lactate), EP 5 %, 0 min after dissolution): 6.5
- pH (Ringer' solution (no lactate), EP 5 %, 5 min after dissolution): 6.0
- pH (Ringer' solution (no lactate), EP 5 %, 30 min after dissolution): 6.0
- pH (Ringer' solution (no lactate), EP 5 %, 60 min after dissolution): 5.2
- pH (Ringer' solution (no lactate), EP 5 %, 2 h after dissolution): 5.2
- pH (Ringer' solution (no lactate), EP 5 %, 4 h after dissolution): 4.0
- pH (Ringer' solution (no lactate), EP 5 %, 24 h after dissolution): 2.0
- pH (Ringer' solution (no lactate), EP 5 %, 48 h after dissolution): 2.0
- pH (Ringer' solution (no lactate), EP 10 %, 0 min after dissolution): 6.5
- pH (Ringer' solution (no lactate), EP 10 %, 5 min after dissolution): 5.5
- pH (Ringer' solution (no lactate), EP 10 %, 30 min after dissolution): 5.3
- pH (Ringer' solution (no lactate), EP 10 %, 60 min after dissolution): 5.2
- pH (Ringer' solution (no lactate), EP 10 %, 2 h after dissolution): 5.2
- pH (Ringer' solution (no lactate), EP 10 %, 4 h after dissolution): 2.0
- pH (Ringer' solution (no lactate), EP 10 %, 24 h after dissolution): 2.0
- pH (Ringer' solution (no lactate), EP 10 %, 48 h after dissolution): 2.0
- stability as indicated by the pH readings (in Ringer's Lactate solution): remains stable

— patent publication US20030232884A1, “New pharmaceutical formulation” (Critical Therapeutics, Inc., priority 2002, published 2003)
